Values of other authors, collected in patent publication US5006510A, “Method for relieving chronic pain with a somatostatin analog composition” (priority 1989, dated 1991).
Read-outs that look alike come from different tables or passages of the source.

Legend:
[1] = applied topically with N-decylmethylsulfoxide; human skin
[2] = applied topically with N-decylmethylsulfoxide; mouse skin

In the case of `C[C@@H](O)[C@@H]1NC(=O)[C@H](CCCCN)NC(=O)[C@@H](Cc2c[nH]c3ccccc23)NC(=O)[C@H](Cc2ccccc2)NC(=O)[C@@H](NC(=O)[C@H](N)Cc2ccccc2)CSSC[C@@H](C(=O)N[C@H](CO)[C@@H](C)O)NC1=O` [octreotide, octreotide acetate], the skin permeation [1] is listed as “permeates both human and mouse skin” and the skin permeation [2] is listed as “permeates both human and mouse skin”.
